Test results taken from patent EP0612525B1, “Transdermal treatment with mast cell degranulating agents for drug-induced hypersensitivity” (BRISTOL-MYERS SQUIBB COMPANY, priority 1993, dated 1994).

What was measured:
[1] = In vitro drug permeation from plastisol patches through human skin (paper example); type: in vitro ADME
BALB/c female mice [2] = assay: Contact hypersensitivity, TNBS sensitization / TNCB ear challenge (ear swelling); type: in vivo; details: 20 µg intradermally; for % SUPPRESSION: TNBS 2.45 mg
BALB/c female mice [3] = assay: as above; type: in vivo; details: other experiments, compared with cis-UCA
Protocol: BALB/c female mice were maintained in a specific pathogen-free colony. Age-matched mice between 8 and 12 weeks of age were maintained in filter-protected cages and fed mouse chow and water ad libitum. Lighting was controlled to provide 12 hours light-dark cycles.
A 7% (w/v) working solution of trinitrobenzene sulfonate (TNBS) was prepared in distilled water. […] For induction of sensitization, each of 5 Balb/c mice received epicutaneous application of 35 µg of TNBS via a Hilltop chamber for 5 hours.
A contact hypersensitivity response was elicited on day 5 by challenging the right ear of each mouse with 20 µl of 1% trinitronchlorobenzene (TNCB) (in acetone). Ear thickness was measured with a spring-loaded caliper immediately before challenge, and at 24 and 48 hours after challenge. Ear thickness was measured in mm X 10^-3.
The statistical significance of differences in the contact hypersensitivity response between control and treated mice was determined using Student's t test for two independent variables. Each group contained five mice. Negative control mice were treated for 24 hours with 100 µl of PBS, pH 5.5, and challenged on the right ear 5 days later with 20 µl of 1% TNCB.
The mice were then epicutaneously sensitized with 100 µl of 0.035% TNBS (w/v) in PBS, pH 5.5.
For pretreatment plus co-administration, mice were first pretreated for 24 hours as above. Thereafter, 6000 µg of UCA (100 µl of 6% solution, 60 mg/ml in PBS pH 5.5) were placed in the Hilltop chamber along with 35 µg of TNBS.
Sensitization with TNBS was induced as described above.

[4] = Percutaneous permeation of urocanic acid isomers through human cadaver skin (Franz cell diffusion chambers); type: in vitro ADME; details: in words
Protocol: Skin permeation experiments were undertaken to measure the flux of cis-UCA and the trans-UCA) through human skin. This information is required for topical delivery of cis-UCA using a TDS.
cis-UCA was prepared by ultraviolet irradiation of solutions of trans-UCA (obtained from Sigma Chemical Co., St. Louis, MO), as described above (see Example 1 above).
For skin permeation experiments, human cadaver skin was obtained and sectioned on a dermatome to yield a partial thickness skin of about 400 µm. Partial thickness skin samples were transferred to standard Franz cell diffusion chambers with the stratum corneum side up, and equilibrated with phosphate buffered saline (PBS) at pH 7.2. at 35°C in standard thermal blocks (Pierce Reacti-Therm).
Three different solution of UV-irradiated UCA were prepared. All samples were mixtures of both cis-UCA and trans-UCA, contained about between 55% to 67% cis-UCA. The three different solutions (0.5 ml) were applied to the skin samples in the donor chamber of the diffusion chamber, and fractions of the receptor solution (saline) were collected and the amount of cis and trans isomers that permeated through the skin determined by standard HPLC methods. […] The tissue extracts were neutralized and aliquots analyzed by HPLC.

## CCCCCCCC/C=C\CCCCCCCC(=O)O [oleic acid]
[1]
  permeation rate of ISDN: significantly enhances

## O=C(O)c1cc(=O)c2c(OCC(O)COc3cccc4oc(C(=O)O)cc(=O)c34)cccc2o1 [sodium cromolyn, reference compound]
BALB/c female mice [2]
  suppression of contact sensitization (in words): failed to suppress contact sensitization
BALB/c female mice [2]; 24 and 48 hours together
  enhancement in the contact sensitivity response: 14-17%
BALB/c female mice [2]; 24 Hours
  % SUPPRESSION: +14.1%
BALB/c female mice [2]; 48 Hours
  % SUPPRESSION: +17.0%

## O=C(O)/C=C/c1cnc[nH]1 [trans-UCA, trans-urocanic acid, reference compound]
BALB/c female mice [3]
  suppressive activity on contact sensitization (in words): much less suppressive activity
[4]
  fluxes through human skin (comparison of isomers): comparable fluxes
